Source: US20110033946A1, “DETECTION OF SHORT-CHAIN FATTY ACIDS IN BIOLOGICAL SAMPLES” (HEMAQUEST PHARMACEUTICALS, INC., priority 2009, published 2011)

Assay: Stock solution stability at approximately 4° C. (old vs new stock peak areas)
Assay type: physicochemical
Settings: for Stock solution stability, RE % (to New) of old stock peak area: approximately 4° C.
Description: The following LC-MS/MS conditions were applied for the analysis of underivatized sodium 2,2-dimethylbutyrate and DMV for stock solution stability analysis (2 to 3.5 month), and system suitability associated with these analyses: The following samples were also analyzed either in conjunction with one of the precision and accuracy runs or in one of the additional validation runs. Samples from six lots of control human plasma for specificity. Samples from six lots of control human plasma fortified with internal standard for specificity. Two concentration levels of unextracted QC-samples in triplicate (solvent standards) were analyzed for the evaluation of the recovery of sodium 2,2-dimethylbutyrate and DMV in human plasma. Two levels of QC samples (Low QC and High QC in triplicate) were subjected to three freeze/thaw cycles at approximately −70° C. prior to extraction to evaluate freeze/thaw stability. Two levels of QC samples (Low QC and High QC in triplicate) were placed on the bench top for approximately 17 hours prior to extraction for the evaluation of the bench top stability. Triplicate low QC samples and triplicate high QC samples were stored for one month and three months in a freezer at approximately −70° C., and then extracted and analyzed to evaluate long term stability in human plasma. Two levels of extracted QC samples (Low QC and High QC) were re-analyzed after approximately 71 hours in the autosampler at room temperature to evaluate the extract autosampler stability. Two levels of extracted QC samples (Low QC and High QC) were re-analyzed after approximately 8 hours in the freezer at approximately −20° C. to evaluate the extract freeze stability. Three aliquots of a dilution QC sample diluted 10-fold. Triplicate dilutions of the old stock solution (stored at approximately 4° C.) and new stock solutions prepared at intervals of two weeks and one month. Statistical calculations in the report tables were calculated from unrounded concentration values taken directly from the raw data. The concentration values were rounded for display purposes. Fresh stock solutions of sodium 2,2-dimethylbutyrate were prepared at intervals of two weeks and 1, 2, 3 and 3.5 months after the initial standard preparation. Similarly, the stability intervals for DMV were two weeks and 1, 2 and 3 months. The initial (or old) stock solutions and the fresh stock solutions were diluted into the calibration standard range and analyzed. The peak areas for the fresh (new) and old standard solutions were compared. Beginning with the 2-month stability analysis, sodium 2,2-dimethylbutyrate and DMV stock solutions were analyzed underivatized. This was done since the peak areas of both sodium 2,2-dimethylbutyrate and DMV varied among replicate derivatized preparations. Analyzing the standard solutions underivatized was a simpler procedure which gave more accurate and precise results

SMILES: CCCC(C)(C)C(=O)O [DMV, 2,2-Dimethylvaleric acid, reference compound]
- Stock solution stability, RE % (to New) of old stock peak area (1 Month Interval): 23.9%
- Stock solution stability, RE % (to New) of old stock peak area (2 Month Interval, underivatized): 14.3%
- Stock solution stability, RE % (to New) of old stock peak area (2 Week Interval): 16.7%
- Stock solution stability, RE % (to New) of old stock peak area (3 Month Interval, underivatized): 17.8%
- Stock solution stability, RE % (to New) of old stock peak area (~2 Month Interval, repeated with the 1 month stock solution as old, underivatized): −7.2%
- Time stock solutions are stable (stock solution in acetonitrile/water stored in a refrigerator at approximately 4° C.): at least 2 months
